The values that follow come from patent publication US20240209028A1, “CNP COMPOUNDS” (priority 2022, published 2024).

Starred links: 1 amine or outer side, 2 acyl side, 3 side chain; linkers in the order of their positions; H or OH if unused. Positions of bridges follow the written chain, without caps; N, C: chain ends. Residues, ends and D or L forms follow the SMILES beside them. *: point of attachment. C18 diacid = O=C(O)CCCCCCCCCCCCCCCCC(=O)*; γGlu = O=C(O)[C@H](CCC(=O)[*:2])N[*:1]; AEEA = NCCOCCOCC(=O)O

In one assay the target is T1, human natriuretic peptide receptor 2 (hNPR2) (Homo sapiens, UniProt P20594).
T1 construct: expressed in transfected cells; host or cells: HEK293 (ATCC CRL-1573), clone 35, co-transfected with pGloSensor-42F
T1 sequence (P20594 23-1047): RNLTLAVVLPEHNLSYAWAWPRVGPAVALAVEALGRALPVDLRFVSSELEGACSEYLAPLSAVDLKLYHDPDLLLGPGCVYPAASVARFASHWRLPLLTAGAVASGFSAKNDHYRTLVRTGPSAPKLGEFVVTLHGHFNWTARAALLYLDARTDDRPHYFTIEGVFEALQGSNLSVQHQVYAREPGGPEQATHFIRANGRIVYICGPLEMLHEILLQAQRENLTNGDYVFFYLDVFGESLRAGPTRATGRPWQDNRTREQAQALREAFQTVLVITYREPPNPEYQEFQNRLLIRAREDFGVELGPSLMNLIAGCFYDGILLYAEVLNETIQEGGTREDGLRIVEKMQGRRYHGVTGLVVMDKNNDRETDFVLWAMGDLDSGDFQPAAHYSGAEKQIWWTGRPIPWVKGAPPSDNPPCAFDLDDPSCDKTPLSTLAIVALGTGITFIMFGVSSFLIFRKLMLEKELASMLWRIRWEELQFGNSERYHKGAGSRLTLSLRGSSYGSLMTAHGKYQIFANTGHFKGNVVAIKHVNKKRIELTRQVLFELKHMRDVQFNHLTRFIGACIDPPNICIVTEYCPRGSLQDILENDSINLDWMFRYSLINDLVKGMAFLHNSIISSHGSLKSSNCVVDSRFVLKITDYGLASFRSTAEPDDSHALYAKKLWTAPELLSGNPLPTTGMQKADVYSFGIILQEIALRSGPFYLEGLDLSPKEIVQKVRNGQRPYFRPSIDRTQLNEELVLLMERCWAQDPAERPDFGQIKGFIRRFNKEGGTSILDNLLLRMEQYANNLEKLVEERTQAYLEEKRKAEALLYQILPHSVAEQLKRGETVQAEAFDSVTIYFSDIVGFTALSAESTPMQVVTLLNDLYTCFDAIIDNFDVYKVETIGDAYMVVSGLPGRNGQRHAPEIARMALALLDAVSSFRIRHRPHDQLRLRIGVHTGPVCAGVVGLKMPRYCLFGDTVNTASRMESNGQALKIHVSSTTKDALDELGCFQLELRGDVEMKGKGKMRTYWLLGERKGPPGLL
As to the kind of experiment: In vitro hNPR2 activity assay (cGMP GloSensor reporter, HEK293). Type of assay: cell-based. The note with it: 0% HSA; HEK293-hNPR2/GloSensor cells. In short, it runs like this: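 Potency is the EC50 from a four-parameter logistic fit, also expressed relative to the in-plate CNP22 control (×100), with at least two replicates. Compounds (ten concentrations, […], HSA-free diluent with 1% OVA, 0.01% Tween20) were incubated 30 min at 37 °C on HEK293 cells co-expressing hNPR2 and a GloSensor cGMP luciferase. Luminescence detected with Bright-Glo.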
A word on the EC50: it is the midpoint of the concentration-response curve. Read a high EC50 as weaker potency. For `CC[C@H](C)[C@@H]1NC(=O)[C@H](CCCNC(=N)N)NC(=O)[C@H](CC(=O)O)NC(=O)[C@H](CC(C)C)NC(=O)[C@H](CCCCN)NC(=O)[C@H](CC(C)C)NC(=O)CNC(=O)[C@H](Cc2ccccc2)NC(=O)[C@@H](NC(=O)CNC(=O)[C@H](CCCCN)NC(=O)[C@H](CO)NC(=O)[C@H](CC(C)C)NC(=O)CNC(=O)[C@H](CCCCN)NC(=O)[C@H](CCCCN)NC(=O)[C@H](CCC(N)=O)NC(=O)[C@H](C)NC(=O)CNC(=O)[C@H](CCCCN)NC(=O)[C@H](Cc2ccc(O)cc2)NC(=O)[C@H](CCCCN)NC(=O)[C@H](CCCNC(=N)N)NC(=O)[C@H](C)NC(=O)[C@H](CCC(N)=O)NC(=O)[C@@H]2CCCN2C(=O)[C@H](Cc2c[nH]cn2)NC(=O)[C@H](CCC(=O)O)NC(=O)[C@H](CCC(N)=O)NC(=O)COCCOCCNC(=O)COCCOCCNC(=O)CC[C@H](NC(=O)CC[C@H](NC(=O)CC[C@H](NC(=O)CC[C@H](NC(=O)CC[C@H](NC(=O)CC[C@H](NC(=O)CC[C@H](NC(=O)CC[C@H](NC(=O)CCCCCCCCCCCCCCCCC(=O)O)C(=O)O)C(=O)O)C(=O)O)C(=O)O)C(=O)O)C(=O)O)C(=O)O)C(=O)O)CSSC[C@@H](C(=O)O)NC(=O)CNC(=O)[C@H](CC(C)C)NC(=O)CNC(=O)[C@H](CO)NC(=O)[C@H](CC(C)C)NC(=O)[C@H](CO)NC(=O)CNC1=O` [compound 1401], the EC50 is 0.56 nM.

The assay is the same for the next values; noted with them: potency relative to CNP22 (0065).
As to `CC[C@H](C)[C@@H]1NC(=O)[C@H](CCCNC(=N)N)NC(=O)[C@H](CC(=O)O)NC(=O)[C@H](CC(C)C)NC(=O)[C@H](CCCCN)NC(=O)[C@H](CC(C)C)NC(=O)CNC(=O)[C@H](Cc2ccccc2)NC(=O)[C@@H](NC(=O)CNC(=O)[C@H](CCCCN)NC(=O)[C@H](CO)NC(=O)[C@H](CC(C)C)NC(=O)CNC(=O)[C@H](CCCCN)NC(=O)[C@H](CCCCN)NC(=O)[C@H](CCC(N)=O)NC(=O)[C@H](C)NC(=O)CNC(=O)[C@H](CCCCN)NC(=O)[C@H](Cc2ccc(O)cc2)NC(=O)[C@H](CCCCN)NC(=O)[C@H](CCCNC(=N)N)NC(=O)[C@H](C)NC(=O)[C@H](CCC(N)=O)NC(=O)[C@@H]2CCCN2C(=O)[C@H](Cc2c[nH]cn2)NC(=O)[C@H](CCC(=O)O)NC(=O)[C@H](CCC(N)=O)NC(=O)COCCOCCNC(=O)COCCOCCNC(=O)CC[C@H](NC(=O)CC[C@H](NC(=O)CC[C@H](NC(=O)CC[C@H](NC(=O)CC[C@H](NC(=O)CC[C@H](NC(=O)CC[C@H](NC(=O)CC[C@H](NC(=O)CCCCCCCCCCCCCCCCC(=O)O)C(=O)O)C(=O)O)C(=O)O)C(=O)O)C(=O)O)C(=O)O)C(=O)O)C(=O)O)CSSC[C@@H](C(=O)O)NC(=O)CNC(=O)[C@H](CC(C)C)NC(=O)CNC(=O)[C@H](CO)NC(=O)[C@H](CC(C)C)NC(=O)[C@H](CO)NC(=O)CNC1=O` [compound 1401], the “hNPR2 0% HSA. [EC50% rel CNP]” value amounted to 19.7%.
Still for that read-out and setting: with `CC[C@H](C)[C@@H]1NC(=O)[C@H](CCCNC(=N)N)NC(=O)[C@H](CC(=O)O)NC(=O)[C@H](CC(C)C)NC(=O)[C@@H]2CCCN2C(=O)[C@H](CC(C)C)NC(=O)CNC(=O)[C@H](Cc2ccccc2)NC(=O)[C@@H](NC(=O)CNC(=O)[C@H](CCC(N)=O)NC(=O)[C@H](CO)NC(=O)CNC(=O)CNC(=O)[C@H](CCCCN)NC(=O)[C@H](CCCCN)NC(=O)[C@H](CCC(N)=O)NC(=O)[C@H](C)NC(=O)CNC(=O)[C@H](CCCCN)NC(=O)[C@H](Cc2ccc(O)cc2)NC(=O)[C@H](CCCCN)NC(=O)[C@H](CCCNC(=N)N)NC(=O)[C@H](C)NC(=O)[C@H](CCC(N)=O)NC(=O)[C@@H]2CCCN2C(=O)[C@H](Cc2c[nH]cn2)NC(=O)[C@H](CCC(=O)O)NC(=O)[C@H](CCC(N)=O)NC(=O)COCCOCCNC(=O)COCCOCCNC(=O)CC[C@H](NC(=O)CC[C@H](NC(=O)CC[C@H](NC(=O)CC[C@H](NC(=O)CC[C@H](NC(=O)CC[C@H](NC(=O)CCCCCCCCCCCCCCCCC(=O)O)C(=O)O)C(=O)O)C(=O)O)C(=O)O)C(=O)O)C(=O)O)CSSC[C@@H](C(=O)O)NC(=O)CNC(=O)[C@H](CC(C)C)NC(=O)CNC(=O)[C@H](CO)NC(=O)[C@H](CC(C)C)NC(=O)[C@H](CO)NC(=O)CNC1=O` [compound 1403] ({C18 diacid-γGlu-γGlu-γGlu-γGlu-γGlu-γGlu-AEEA-AEEA}-QEHPQARKYKGAQKKGGSQGCFGLPLDRIGSLSGLGC-OH; disulfide 21-37) the figure was 87.1%; with `CC[C@H](C)[C@@H]1NC(=O)[C@H](CCCNC(=N)N)NC(=O)[C@H](CC(=O)O)NC(=O)[C@H](CC(C)C)NC(=O)[C@@H]2CCCN2C(=O)[C@H](CC(C)C)NC(=O)CNC(=O)[C@H](Cc2ccccc2)NC(=O)[C@@H](NC(=O)CNC(=O)[C@H](CCCCN)NC(=O)[C@H](CO)NC(=O)[C@@H](NC(=O)CNC(=O)[C@@H](NC(=O)[C@H](CCCCN)NC(=O)[C@H](CCC(N)=O)NC(=O)[C@H](C)NC(=O)CNC(=O)[C@H](Cc2c[nH]cn2)NC(=O)[C@H](Cc2ccc(O)cc2)NC(=O)[C@H](CCCCN)NC(=O)[C@H](CCCNC(=N)N)NC(=O)[C@H](C)NC(=O)COCCOCCNC(=O)COCCOCCNC(=O)CC[C@H](NC(=O)CC[C@H](NC(=O)CC[C@H](NC(=O)CCCCCCCCCCCCCCCCC(=O)O)C(=O)O)C(=O)O)C(=O)O)[C@@H](C)O)C(C)C)CSSC[C@@H](C(=O)O)NC(=O)CNC(=O)[C@H](CC(C)C)NC(=O)CNC(=O)[C@H](CO)NC(=O)[C@H](CC(C)C)NC(=O)[C@H](CO)NC(=O)CNC1=O` [compound 1423] ({C18 diacid-γGlu-γGlu-γGlu-AEEA-AEEA}-ARKYHGAQKTGVSKGCFGLPLDRIGSLSGLGC-OH; disulfide 16-32), 37.7%; with `CC[C@H](C)[C@@H]1NC(=O)[C@H](CCCNC(=N)N)NC(=O)[C@H](CC(=O)O)NC(=O)[C@H](CC(C)C)NC(=O)[C@@H]2CCCN2C(=O)[C@H](CC(C)C)NC(=O)CNC(=O)[C@H](Cc2ccccc2)NC(=O)[C@@H](NC(=O)CNC(=O)[C@H](CCCCN)NC(=O)[C@H](CO)NC(=O)[C@@H](NC(=O)CNC(=O)[C@@H](NC(=O)[C@H](CCCCN)NC(=O)[C@H](CCC(N)=O)NC(=O)[C@H](C)NC(=O)CNC(=O)[C@H](CCCCN)NC(=O)[C@H](Cc2ccc(O)cc2)NC(=O)[C@H](CCCCN)NC(=O)[C@H](CCCNC(=N)N)NC(=O)[C@H](C)NC(=O)COCCOCCNC(=O)COCCOCCNC(=O)CC[C@H](NC(=O)CC[C@H](NC(=O)CC[C@H](NC(=O)CC[C@H](NC(=O)CCCCCCCCCCCCCCCCC(=O)O)C(=O)O)C(=O)O)C(=O)O)C(=O)O)[C@@H](C)O)C(C)C)CSSC[C@@H](C(=O)O)NC(=O)CNC(=O)[C@H](CC(C)C)NC(=O)CNC(=O)[C@H](CO)NC(=O)[C@H](CC(C)C)NC(=O)[C@H](CO)NC(=O)CNC1=O` [compound 1424] ({C18 diacid-γGlu-γGlu-γGlu-γGlu-AEEA-AEEA}-ARKYKGAQKTGVSKGCFGLPLDRIGSLSGLGC-OH; disulfide 16-32), 36.2%.
Still for that read-out and setting: the value for `CC[C@H](C)[C@@H]1NC(=O)[C@H](CCCNC(=N)N)NC(=O)[C@H](CC(=O)O)NC(=O)[C@H](CC(C)C)NC(=O)[C@@H]2CCCN2C(=O)[C@H](CC(C)C)NC(=O)CNC(=O)[C@H](Cc2ccccc2)NC(=O)[C@@H](NC(=O)CNC(=O)[C@H](CCCCN)NC(=O)[C@H](CO)NC(=O)[C@@H](NC(=O)CNC(=O)[C@@H](NC(=O)[C@H](CCCCN)NC(=O)[C@H](CCC(N)=O)NC(=O)[C@H](C)NC(=O)CNC(=O)[C@H](Cc2c[nH]cn2)NC(=O)[C@H](Cc2ccc(O)cc2)NC(=O)COCCOCCNC(=O)COCCOCCNC(=O)COCCOCCNC(=O)COCCOCCNC(=O)CC[C@H](NC(=O)CC[C@H](NC(=O)CCCCCCCCCCCCCCCCC(=O)O)C(=O)O)C(=O)O)[C@@H](C)O)C(C)C)CSSC[C@@H](C(=O)O)NC(=O)CNC(=O)[C@H](CC(C)C)NC(=O)CNC(=O)[C@H](CO)NC(=O)[C@H](CC(C)C)NC(=O)[C@H](CO)NC(=O)CNC1=O` [compound 1425] ({C18 diacid-γGlu-γGlu-AEEA-AEEA-AEEA-AEEA}-YHGAQKTGVSKGCFGLPLDRIGSLSGLGC-OH; disulfide 13-29) was 26.4%.
`CC[C@H](C)[C@@H]1NC(=O)[C@H](CCCNC(=N)N)NC(=O)[C@H](CC(=O)O)NC(=O)[C@H](CC(C)C)NC(=O)[C@@H]2CCCN2C(=O)[C@H](CC(C)C)NC(=O)CNC(=O)[C@H](Cc2ccccc2)NC(=O)[C@@H](NC(=O)CNC(=O)[C@H](Cc2c[nH]cn2)NC(=O)[C@H](CO)NC(=O)CNC(=O)CNC(=O)[C@H](CCCCN)NC(=O)[C@H](CCCCN)NC(=O)[C@H](CCC(N)=O)NC(=O)[C@H](C)NC(=O)CNC(=O)[C@H](CCC(=O)O)NC(=O)[C@H](Cc2ccc(O)cc2)NC(=O)COCCOCCNC(=O)COCCOCCNC(=O)COCCOCCNC(=O)COCCOCCNC(=O)CC[C@H](NC(=O)CCCCCCCCCCCCCCCCC(=O)O)C(=O)O)CSSC[C@@H](C(=O)O)NC(=O)CNC(=O)[C@H](CC(C)C)NC(=O)CNC(=O)[C@H](CO)NC(=O)[C@H](CC(C)C)NC(=O)[C@H](CO)NC(=O)CNC1=O` [compound 1431] ({C18 diacid-γGlu-AEEA-AEEA-AEEA-AEEA}-YEGAQKKGGSHGCFGLPLDRIGSLSGLGC-OH; disulfide 13-29; C-terminus assumed): the “hNPR2 0% HSA. [EC50% rel CNP]” value is on record as 14.3%.
